Laboratory results from patent publication US20150209379A1, “TREATMENT OF PROSTATE CANCER AND HEMATOLOGIC NEOPLASMS” (THOMAS JEFFERSON UNIVERSITY, priority 2012, published 2015).

Target: T1, Stat5a (Homo sapiens, UniProt P42229)
T1 sequence (P42229 1-794): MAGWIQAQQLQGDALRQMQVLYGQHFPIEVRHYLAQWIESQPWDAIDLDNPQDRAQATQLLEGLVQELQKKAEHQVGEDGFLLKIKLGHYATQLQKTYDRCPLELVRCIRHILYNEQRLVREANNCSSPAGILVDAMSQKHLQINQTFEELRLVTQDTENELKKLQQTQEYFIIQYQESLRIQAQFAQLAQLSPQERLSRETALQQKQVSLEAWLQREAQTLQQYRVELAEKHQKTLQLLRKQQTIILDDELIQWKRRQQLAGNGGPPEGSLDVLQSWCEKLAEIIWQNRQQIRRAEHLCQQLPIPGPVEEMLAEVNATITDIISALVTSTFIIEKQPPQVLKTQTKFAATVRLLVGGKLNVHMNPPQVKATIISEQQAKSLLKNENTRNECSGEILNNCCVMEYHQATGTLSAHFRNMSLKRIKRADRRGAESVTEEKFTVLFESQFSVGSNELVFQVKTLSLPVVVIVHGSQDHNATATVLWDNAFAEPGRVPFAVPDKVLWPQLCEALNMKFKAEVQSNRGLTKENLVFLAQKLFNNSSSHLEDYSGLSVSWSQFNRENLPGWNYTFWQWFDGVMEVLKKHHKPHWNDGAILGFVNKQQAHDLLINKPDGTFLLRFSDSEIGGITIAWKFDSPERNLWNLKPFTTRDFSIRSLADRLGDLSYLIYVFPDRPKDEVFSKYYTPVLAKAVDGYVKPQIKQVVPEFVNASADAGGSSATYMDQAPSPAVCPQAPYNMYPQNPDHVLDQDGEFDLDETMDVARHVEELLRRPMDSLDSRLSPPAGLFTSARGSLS
Assay: Stat5a dimerization (FLAG-/MYC-tagged Stat5a co-immunoprecipitation) in PC-3 cells
Format: cell-based
Design: expressed in transfected cells; host or cells: PC-3 human prostate cancer cells
Conditions: 2 hours pretreatment, then hPrl 10 nM 30 minutes
Procedure: (§1) FLAG-tagged Stat5a and MYC-tagged Stat5a were generated by standard molecular biology cloning techniques. Plasmid pCMV3-FLAG-Stat5a, pCMV3-MYC-Stat5a and pPr1R were co-transfected using FuGENE6 (Roche) into PC-3 cells (2 μg of each plasmid per 1×10^7 cells). The cells were starved for 20 hours, pretreated with test compound for 2 hours, then stimulated with hPrl (10 nM) in RPMI 1640 without serum for 30 minutes. The cell lysates were immunoprecipitated with 25 μl anti-FLAG M2 […] affinity gel (2 μg/ml, Sigma), anti-MYC pAb (1 μg/ml, Upstate) or normal rabbit serum (NRS). The primary antibodies were used in the immunoblottings at the following concentrations: anti-FLAG pAb (1:1000; Stratagene), anti-MYC mAb (1:1000; Sigma), anti-Stat5a/b mAb (1:250) (Transduction Laboratories) detected by horseradish peroxidase-conjugated secondary antibodies. The results are shown in FIG. 3A for Compound 1 and FIG. 3B for Compound 2.
Lanes 1, 2, 4, 6 and 8 represent cells stimulated with human prolactin (Prl) for 30 minutes which induces dimerization of Stat5. Two hours prior to Prl-stimulation, the cells had been treated with DMSO (lanes 1-4), the control compound C5 (lanes 7 and 8) and either Compound 1 (lanes 5 and 6 in FIG. 3A) or Compound 2 (lanes 5 and 6 in FIG. 3B). […] It should be noted the drug effect in this study was not due to cell apoptosis induction, as the treatment time was only 2 hours. Treatment of at least 48 hours is required for the compound to induce prostate cancer cell apoptosis.
as §1, with “and pPrlR” for “and pPr1R”, “hours, pre-treated” for “hours, pretreated”, “with NBPP” for “with test compound”, “2 h,” for “2 hours,”, “antibodies.” for “antibodies. The results are shown in FIG. 3A for Compound 1 and FIG. 3B for Compound 2.”
Lanes 1, 2, 4, 6 and 8 represent cells stimulated with human prolactin (Prl) for 30 minutes which induces dimerization of Stat5. Two hours prior to Prl-stimulation, the cells had been treated with DMSO (lanes 1-4), the control compound C5 (lanes 5 and 6) or NBPP (lanes 7 and 8) to test whether the Stat5a/b-inhibitor compound, NBPP, would be able to inhibit dimerization of StatS. […] It should be noted the drug effect in this study was not due to cell apoptosis induction, as the treatment time was only 2 hours. Treatment of at least 48 hours is required for the compound to induce prostate cancer cell apoptosis.
FLAG-tagged Stat5a and MYC-tagged Stat5a were generated by standard molecular biology cloning techniques.as follows. […] The primary antibodies were used in the immunoblottings at the following concentrations: anti-FLAG pAb (1:1000; Stratagene), anti-MYC mAb (1:1000; Sigma), anti-Stat5a/b mAb (1:250) (Transduction Laboratories) detected by horseradish peroxidase-conjugated secondary antibodies. […]

## Nc1nc(SCc2cccnc2)[nH]c(=O)c1NC(=O)c1ccco1 [Compound C5, reference compound]
  effect on Stat5a dimerization: did not inhibit dimerization of Stat5a
